Data published in US20100196311A1, “METHODS AND COMPOSITIONS CONTAINING mTOR INHIBITORS FOR ENHANCING IMMUNE RESPONSES” (priority 2009, published 2010).

B1: IL-12: interleukin-12, cytokine (signal 3) (protein, UniProt P43431 23-215; P43432 23-335, looked up)
Interleukin-12 subunit alpha: RVIPVSGPARCLSQSRNLLKTTDDMVKTAREKLKHYSCTAEDIDHEDITRDQTSTLKTCLPLELHKNESCLATRETSSTTRGSCLPPQKTSLMMTLCLGSIYEDLKMYQTEFQAINAALQNHNHQQIILDKGMLVAIDELMQSLNHNGETLRQKPPVGEADPYRVKMKLCILLHAFSTRVVTINRVMGYLSSA
Interleukin-12 subunit beta: MWELEKDVYVVEVDWTPDAPGETVNLTCDTPEEDDITWTSDQRHGVIGSGKTLTITVKEFLDAGQYTCHKGGETLSHSHLLLHKKENGIWSTEILKNFKNKTFLKCEAPNYSGRFTCSWLVQRNMDLKFNIKSSSSSPDSRAVTCGMASLSAEKVTLDQRDYEKYSVSCQEDVTCPTAEETLPIELALEARQQNKYENYSTSFFIRDIIKPDPPKNLQMKPLKNSQVEVSWEYPDSWSTPHSYFSLKFFVRIQRKKEKMKETEEGCNQKGAFLVEKTSTEVQCKGGNVCVQAQDRYYNSSCSKWACVPCRVRS

How the values were obtained:
[1] = molecular target: T1, mTOR (Mus musculus, UniProt P26883+Q9JLN9); test: mTOR activity (mTOR, S6K and S6 phosphorylation by ICS) in stimulated OT-I cells; format: cell-based
T1 construct: endogenous in cells; host or cells: naive OT-I CD8+ T cells (TCR transgenic Rag2-/- mice) stimulated with Ag+B7.1 +/- IL-12
Method: FIG. 1. […] (A and B) OT-I cells stimulated with BOK (Ag+B7.1) (±) IL-12 were evaluated for (A) IFN-γ by ICS and (B) cytolytic activity (primary, 72 hr poststimulation; secondary, 24 hr postsecondary stimulation); ***p<0.0002. (C-E) OT-I cells stimulated with antigen (Ag) (the antigen is a peptide consisting of Ser Ile Ile followed by Asn Phe Glu which are followed by Lys and Lue (OVAp), used at 10 nM) plus B7.1 (100 μg/ml)(Ag+B7.1)(±) IL-12 (2 ng/ml) were evaluated by ICS at the indicated time points for (C) phosphorylated mTOR, (D) phosphorylated S6K, and (E) phosphorylated ribosomal S6. For mTOR inhibition, rapamycin (20 ng/ml) was added 30 min prior to addition of antigen, cytokine Data are representative of at least three independent experiments with similar outcomes. (Data are presented as mean±SEM.)
Stimulation of OT-1 Cells. Naive OT-I cells were stimulated with latex microspheres expressing H-2K^b/ovalbumin antigen and B7.1 according to known techniques. Naive OT-II cells were stimulated with anti-CD3-/anti-CD28-coated latex beads. In some experiments, the cell line derived from embryonic fibroblasts, namely, BOK (MEC.B7.SigOVA: expressing H-2K^b, OVAp and B7.1, were used as antigen-presenting cells to stimulate naive OT-I cells according to known techniques.
Although the kinase mTOR has been implicated as an integrator of various extracellular signals and a sensor for internal energy levels for determination of cell fate, the role for mTOR in integrating instructions that program naive CD8^+ T cells for type I effector differentiation is unclear. First, we tested the ability of Ag and B7.1 (Ag+B7.1) in the presence or absence of IL-12 to activate mTOR in OT-I cells at various time points after stimulation. Stimulation of naive OT-I cells with Ag+B7.1 induced mTOR phosphorylation (activation) by 2 hr, which was maximal at 12 hr and barely detectable by 48 hr (FIG. 1C). Remarkably, IL-12 addition enhanced Ag+B7.1-induced mTOR phosphorylation at 2 hr, which was maintained at 48 hr after stimulation (FIG. 1C). […] To verify that the induction of mTOR phosphorylation also led to its kinase activity, we monitored the kinetics of p70 S6K phosphorylation (Ser 371), a direct target of mTOR kinase activity. Although both Ag+B7.1 and Ag+B7.1 plus IL-12 induced similar amounts of S6K phosphorylation at 12 hr (maximal), the presence of IL-12 was able to sustain the S6K phosphorylation up to 48 hr (FIG. 10), in correlation with mTOR phosphorylation (FIG. 1C). […] The Ag+B7.1±IL-12 stimulation-induced S6K and S6 phosphorylation in OT-I cells was blocked by rapamycin (specific inhibitor of mTOR complex-1) (FIGS. 1D and 1E), thus confirming the ability of instructions to activate mTOR and its kinase activity in OT-I cells. […]

[2] = system: T-bet; test: T-bet mRNA and protein expression in OT-I cells; format: cell-based, mouse
Method: FIG. 4. IL-12-Enhanced mTOR Phosphorylation Is Essential for T-bet-Determined Type I Effector Maturation of CD8^+ T Cells. (A-C) OT-I cells stimulated with Ag+B7.1 (±) IL-12 and rapamycin were evaluated for (A) mRNA for T-bet at the indicated time points by RT-PCR, (B) T-bet protein expression at the indicated time-points by ICS, and (C) T-bet protein expression by ICS before and after antigen recall. **p<0.0035; ***p<0.0005. (D) WT and Tbx21^−1− OT-I cells were stimulated with Ag+B7.1 (±) IL-12 and evaluated for IFN-γ production at the primary and secondary phase. ***p<0.0001. (E and F) OT-I cells stimulated with Ag+B7.1 (±) IL-12 and rapamycin were transduced with T-bet-ER retroviral vector (±) 4-HT (10 nM) and evaluated by ICS for (E) T-bet protein expression by ICS and (F) IFN-γ at secondary phase (168 hr). (G and H) OT-I cells stimulated with Ag+B7.1 (±) insulin (1 U/ml) and rapamycin were evaluated by ICS for (G) S6K phosphorylation at 48 hr and (H) T-bet expression at 72 hr. Experiments shown are representative of at least three (A, B, D, E, and F) and two (C, G, and H) independent experiments with similar outcomes. (Data are presented as mean±SEM).
Retroviral Transduction and T-Bet Induction. T-bet-ER RV (Estrogen Responsive Retro Viral Vector) was cotransfected into Platinum-E cells together with the retroviral packaging vector pCL-Eco using LipoD293 DNA in vitro transfection reagent (SignaGen Laboratories) following the manufacturer's instructions. The medium was replaced the following day, and retroviral supernatant was collected 3 days after transfection. For transduction, naive OT-I cells stimulated for 24 hr, were suspended in retroviral supernatant containing polybrene (8 μg/ml; Sigma-Aldrich), and were spin-transduced at 2200 rpm for 90 min at 30° C. After spin-transduction, cells were cultured in fresh medium containing the same polarizing milieu as before, along with the addition of 4-HT (10 nM). At the end of 72 hr after initial stimulation, cells were washed thrice and maintained in the absence of any stimulation but in the presence of 4-HT and IL-7 (10 ng/ml).
Because the sustained expression of T-bet is necessary and sufficient for imprinting type I effector cell fate (Matsuda et al., 2007) and mTOR inhibition reversed IL-12 imprinted type I effector maturation in OT-I cells (FIG. 3), we next sought to determine whether rapamycin treatment affects T-bet expression in OT-I cells by performing kinetic analysis of T-bet mRNA expression (FIG. 4A). […] Moreover, inhibition of mTOR activity at 12 hr was also able to achieve loss in T-bet expression, similar to the observed loss in type I effector maturation (FIG. 3E).

[3] = IFN-α, Ag+B7.1-stimulated OT-I cells

Molecule	mTOR activity [1, 3]	T-bet expression [2, 3]	mTOR phosphorylation ([1]; IL-12 (2 ng/ml) added to Ag+B7.1 stimulation, 2-48 hr)	Ag+B7.1-induced T-bet expression ([2]; IL-12 addition, 24-96 hr)
IFN-α	unable to enhance	unable to enhance		
B1			enhances and sustains	enhanced and sustained
